Laboratory results taken from patent publication US5998376A, “Substance P treatment for immunostimulation” (priority 1998, dated 1999).

Tests used:
[1] = test system: immune system organs (spleen, lymph nodes and thymus); assay: Organ Weight and Total Cell Recovery, JP-8 exposed mice; type: in vivo, C57B16 mice; set-up: Spleen Weight / Thymus Weight: unit not given here
Description: (§1) At 24 hours after the last exposure, the animals were sacrificed and the effects of exposure on the immune system examined. Immune organs (spleen, thymus, blood, lymph nodes and bone marrow) were recovered and analyzed for effects on organ weight, total cell numbers, immune cell populations (by differentials), and lymphocyte subpopulations (by flow cytometry). Assays were also performed to examine the effects of exposure on immune function. […] Similar effects on immune cell subpopulations were also observed in lymph nodes. In the thymus it appeared that the immature CD4^+ CD8^+ cells were differentially lost due to exposure. […] However, these effects are prevented or ameliorated by treatment of the animals with Substance P.
Organ Weight and Total Cell Recovery: For each of the immune system organs (spleen, lymph nodes and thymus) the wet weight is determined after removal using a microbalance. After processing of the organs into single cell suspensions the cell numbers and viabilities are determined using trypan blue staining. Histochemical differentials are performed at this time. Cell numbers and viabilities are again determined after centrifugation of the cell suspensions through density gradients to obtain mononuclear cells.

[2] = test system: lymphocyte subpopulations; assay: Flow cytometric analyses (FACS) of immune organs, JP-8 exposed mice; type: in vivo, C57B16 mice
Description: as §1
Flow cytometric analyses (FACS): One- and two-color FACS analyses are performed using a Becton-Dickinson FACStar Plus flow cytometer. Cells are stained with the indicated monoclonal antibodies according to standard procedures (Harris et al., id). Cells alone and cells reacted with conjugated isotype control, irrelevant mAbs are used as controls. Data is presented as the percentage of cells staining positive for each individual mAb.

[3] = JP-8 dose 0 + SP or antagonist aerosol
[4] = JP-8 dose 1000 + SP or antagonist aerosol
[5] = JP-8 dose 0 + antagonist aerosol

Compound: COc1ccccc1CN[C@H]1C2CCN(CC2)[C@H]1C(c1ccccc1)c1ccccc1 [CP, CP-96,345, reference compound]
- BM Cell Number [1, 3]: 29
- LN Cell Number [1, 3]: 9.8
- Spleen Cell Number [1, 3]: 16
- Spleen Weight [1, 3]: 0.12
- Thymus Cell Number [1, 3]: 50
- Thymus Weight [1, 3]: 0.12
- BM Cell Number [1, 4]: 22
- LN Cell Number [1, 4]: 7.1
- Spleen Cell Number [1, 4]: 7
- Spleen Weight [1, 4]: 0.16
- Thymus Cell Number [1, 4]: 75
- Thymus Weight [1, 4]: 0.12
- BM CD3, cells staining positive [2, 3]: 16%
- BM CD4, cells staining positive [2, 3]: 9%
- BM CD8, cells staining positive [2, 3]: 7%
- BM CD45, cells staining positive [2, 3]: 27%
- BM MAC1, cells staining positive [2, 3]: 33%
- Spleen CD3, cells staining positive [2, 3]: 32%
- Spleen CD4, cells staining positive [2, 3]: 21%
- Spleen CD8, cells staining positive [2, 3]: 7%
- Spleen CD45, cells staining positive [2, 3]: 24%
- Spleen MAC1, cells staining positive [2, 3]: 3%
- Thymus CD3, cells staining positive [2, 3]: 18%
- Thymus DN, cells staining positive [2, 3]: 13%
- Thymus DP, cells staining positive [2, 3]: 75%
- Thymus SP4, cells staining positive [2, 3]: 12%
- Thymus SP8, cells staining positive [2, 3]: 3%
- LN CD3, cells staining positive [2, 5]: 49%
- LN CD4, cells staining positive [2, 5]: 25%
- LN CD8, cells staining positive [2, 5]: 12%
- LN CD45, cells staining positive [2, 5]: 15%
- LN MAC1, cells staining positive [2, 5]: 1%
- PBL CD3, cells staining positive [2, 5]: 72%
- PBL CD4, cells staining positive [2, 5]: 29%
- PBL CD8, cells staining positive [2, 5]: 13%
- PBL CD45, cells staining positive [2, 5]: 12%
- PBL MAC1, cells staining positive [2, 5]: 7%
- BM CD3, cells staining positive [2, 4]: 14%
- BM CD4, cells staining positive [2, 4]: 7%
- BM CD8, cells staining positive [2, 4]: 3%
- BM CD45, cells staining positive [2, 4]: 41%
- BM MAC1, cells staining positive [2, 4]: 26%
- LN CD3, cells staining positive [2, 4]: 95%
- LN CD4, cells staining positive [2, 4]: 35%
- LN CD8, cells staining positive [2, 4]: 23%
- PBL CD3, cells staining positive [2, 4]: 50%
- PBL CD4, cells staining positive [2, 4]: 20%
- PBL CD8, cells staining positive [2, 4]: 15%
- PBL CD45, cells staining positive [2, 4]: 27%
- PBL MAC1, cells staining positive [2, 4]: 6%
- Spleen CD3, cells staining positive [2, 4]: 34%
- Spleen CD4, cells staining positive [2, 4]: 16%
- Spleen CD8, cells staining positive [2, 4]: 9%
- Spleen CD45, cells staining positive [2, 4]: 26%
- Spleen MAC1, cells staining positive [2, 4]: 11%
- Thymus CD3, cells staining positive [2, 4]: 17%
- Thymus DN, cells staining positive [2, 4]: 12%
- Thymus DP, cells staining positive [2, 4]: 65%
- Thymus SP4, cells staining positive [2, 4]: 17%
- Thymus SP8, cells staining positive [2, 4]: 7%

Compound: COc1ccccc1CC(=N)N1C[C@@H]2C(=O)CCC(c3ccccc3)(c3ccccc3)[C@@H]2C1 [RP, MRP-67,580, reference compound]
- BM Cell Number [1, 4]: 27
- LN Cell Number [1, 4]: 6.8
- Spleen Cell Number [1, 4]: 37
- Spleen Weight [1, 4]: 0.10
- Thymus Cell Number [1, 4]: 72
- Thymus Weight [1, 4]: 0.03
- BM CD3, cells staining positive [2, 4]: 12%
- BM CD4, cells staining positive [2, 4]: 6%
- BM CD8, cells staining positive [2, 4]: 5%
- BM CD45, cells staining positive [2, 4]: 42%
- BM MAC1, cells staining positive [2, 4]: 10%
- LN CD3, cells staining positive [2, 4]: 96%
- LN CD4, cells staining positive [2, 4]: 41%
- LN CD8, cells staining positive [2, 4]: 29%
- LN CD45, cells staining positive [2, 4]: 18%
- LN MAC1, cells staining positive [2, 4]: 1%
- PBL CD3, cells staining positive [2, 4]: 71%
- PBL CD4, cells staining positive [2, 4]: 18%
- PBL CD8, cells staining positive [2, 4]: 10%
- PBL CD45, cells staining positive [2, 4]: 38%
- PBL MAC1, cells staining positive [2, 4]: 9%
- Spleen CD3, cells staining positive [2, 4]: 47%
- Spleen CD4, cells staining positive [2, 4]: 16%
- Spleen CD8, cells staining positive [2, 4]: 5%
- Spleen CD45, cells staining positive [2, 4]: 39%
- Spleen MAC1, cells staining positive [2, 4]: 1%
- Thymus CD3, cells staining positive [2, 4]: 16%
- Thymus DN, cells staining positive [2, 4]: 10%
- Thymus DP, cells staining positive [2, 4]: 70%
- Thymus SP4, cells staining positive [2, 4]: 12%
- Thymus SP8, cells staining positive [2, 4]: 8%
